In patent publication US20050165053A1, “Substituted4-aryl-3-(3-aryl-1-oxo-2-propenyl)-2(1h)-quinolinones and analogs as activators of caspases and inducers of apoptosis and the use thereof” (Cytovia, Inc., priority 2001, published 2005):

Legend:
[1] = target: T1, protein tyrosine phosphatase 1B (PTP1B) (Homo sapiens, UniProt P18031); details: read-out: Ki5; cited from earlier work
T1 sequence (P18031 1-435): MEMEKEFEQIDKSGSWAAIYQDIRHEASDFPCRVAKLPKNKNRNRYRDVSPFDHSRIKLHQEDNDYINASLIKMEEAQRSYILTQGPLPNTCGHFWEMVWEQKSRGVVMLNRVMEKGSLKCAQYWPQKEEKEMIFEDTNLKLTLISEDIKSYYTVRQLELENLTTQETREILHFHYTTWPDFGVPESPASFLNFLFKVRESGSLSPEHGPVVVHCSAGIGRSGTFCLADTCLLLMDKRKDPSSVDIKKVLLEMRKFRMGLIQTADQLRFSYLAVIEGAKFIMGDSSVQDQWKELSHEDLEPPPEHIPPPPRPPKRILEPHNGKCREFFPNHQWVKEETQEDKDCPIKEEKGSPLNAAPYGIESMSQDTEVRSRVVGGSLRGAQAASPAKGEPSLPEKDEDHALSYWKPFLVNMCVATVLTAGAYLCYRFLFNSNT

[2] = tested on: T-47D; experiment: Caspase cascade activation assay in T-47D cells (N-(Ac-DEVD)-N'-ethoxycarbonyl-R110 fluorogenic substrate); format: cell-based, Human; details: 24 h incubation; for Caspase activity Ratio (net RFU of test compound to control): 0.016 to 10 μM final; for EC50: Homo sapiens, T47D, read-out: Caspase potency EC50
Method: (§1) Human breast cancer cell lines T-47D and ZR-75-1 were grown according to media component mixtures designated by American Type Culture Collection+10% FCS (Life Technologies Division of Invitrogen Corporation), in a 5% CO2-95% humidity incubator at 37° C. T-47D and ZR-75-1 cells were maintained at a cell density between 50 and 80% confluency at a cell density of 0.1 to 0.6×10^6 cells/ml. Cells were harvested at 600×g and resuspended at 0.65×10^6 cells/ml into appropriate media+10% FCS. An aliquot of 45 μl of cells was added to a well of a 96-well microtiter plate containing 2.5 μl of a 10% DMSO in RPMI-1640 media solution containing 0.16 to 100 μM of 6-bromo-3-[3-(4-nitrophenyl)-1-oxo-2-propenyl]-4-phenyl-2(1H)-quinolinone or other test compound (0.016 to 10 μM final). An aliquot of 22.5 μl of cells was added to a well of a 384-well microtiter plate containing 2.5 μl of a 10% DMSO in RPMI-1640 media solution without test compound as the control sample. The samples were mixed by agitation and then incubated at 37° C. for 24 h in a 5% CO2-95% humidity incubator. After incubation, the samples were removed from the incubator and 25 μl of a solution containing 14 μM of N-(Ac-DEVD)-N′-ethoxycarbonyl-R110 (SEQ ID No.: 1) fluorogenic substrate (Cytovia, Inc.; WO99/18856), 20% sucrose (Sigma), 20 mM DTT (Sigma), 200 mM NaCl (Sigma), 40 mM Na PIPES buffer pH 7.2 (Sigma), and 500 μg/ml lysolecithin (Calbiochem) was added. The samples were mixed by agitation and incubated at room temperature. Using a fluorescent plate reader (Model SpectraMax Gemini, Molecular Devices), an initial reading (T=0) was made approximately 1-2 min after addition of the substrate solution, employing excitation at 485 nm and emission at 530 nm, to determine the background fluorescence of the control sample. After the 3 h incubation, the samples were read for fluorescence as above (T=3 h).
(§2) The Relative Fluorescence Unit values (RFU) were used to calculate the sample readings as follows: RFU(T=3h)−Control RFU(T=0)=Net RFU(T=3h)
(§3) The activity of caspase cascade activation was determined by the ratio of the net RFU value for 6-bromo-3-[3-(4-nitrophenyl)-1-oxo-2-propenyl]-4-phenyl-2(1H)-quinolinone or other test compound to that of control samples. The EC50 (nM) was determined by a sigmoidal dose-response calculation (Prism 2.0, GraphPad Software Inc.).

[3] = tested on: ZR-75-1; experiment: Caspase cascade activation assay in ZR-75-1 cells (N-(Ac-DEVD)-N'-ethoxycarbonyl-R110 fluorogenic substrate); format: cell-based, Human; details: ZR-75-1, 24 h incubation; for EC50: Homo sapiens, read-out: Caspase potency EC50; for Caspase activity Ratio (net RFU of test compound to control): 0.016 to 10 μM final
Method: as §1, §2, §3

[4] = tested on: T-47D; experiment: Inhibition of cell proliferation (GI50), CellTiter 96 AQUEOUS One, T-47D; format: cell-based; details: Homo sapiens, T47D, 48 h, read-out: GI50 (dose for 50% inhibition of cell proliferation)
Method: (§4) T-47D and ZR-75-1 cells were grown and harvested as in Example 22. An aliquot of 90 μl of cells (2.2×10^4 cells/ml) was added to a well of a 96-well microtiter plate containing 10 μl of a 10% DMSO in RPMI-1640 media solution containing 1 nM to 100 μM of 6-bromo-3-[3-(4-nitrophenyl)-1-oxo-2-propenyl]-4-phenyl-2(1H)-quinolinone (0.1 nM to 10 μM final). An aliquot of 90 μl of cells was added to a well of a 96-well microtiter plate containing 10 μl of a 10% DMSO in RPMI-1640 media solution without compound as the control sample for maximal cell proliferation (AMax). The samples were mixed by agitation and then incubated at 37° C. for 48 h in a 5% CO2-95% humidity incubator. After incubation, the samples were removed from the incubator and 20 μL of CellTiter 96 AQUEOUS One Solution Cell Proliferation™ reagent (Promega) was added. The samples were mixed by agitation and incubated at 37° C. for 2-4 h in a 5% CO2-95% humidity incubator. Using an absorbance plate reader (Model 1420 Wallac Instruments), an initial reading (T=0) was made approximately 1-2 min after addition of the solution, employing absorbance at 490 nm. This determines the possible background absorbance of the test compounds. No absorbance for 6-bromo-3-[3-(4-nitrophenyl)-1-oxo-2-propenyl]-4-phenyl-2(1H)-quinolinone was found at 490 nm. After the 2-4 h incubation, the samples were read for absorbance as above (ATest). […]

[5] = tested on: ZR-75-1; experiment: Inhibition of cell proliferation (GI50), CellTiter 96 AQUEOUS One, ZR-75-1; format: cell-based; details: Homo sapiens, ZR-75-1, 48 h; read-out: GI50 (dose for 50% inhibition of cell proliferation)
Method: as §4

[6] = tested on: T-47D cells; experiment: Apoptosis in T-47D cells by propidium iodide flow cytometry (sub-diploid DNA content); format: cell-based, Human; details: 5 μM, 48 h, control 3%
Method: T-47D, a breast cancer cell line, was maintained and harvested as described in Example 22. 5×10^5 cells were treated with 5 μM of 6-bromo-3-[3-(4-nitrophenyl)-1-oxo-2-propenyl]-4-phenyl-2(1H)-quinolinone for 48 h at 37° C. As a control, cells were also incubated with equivalent amount of solvent (DMSO). Cells were harvested at 1,200 rpm and then transferred to 12×75 mm polystyrene tubes. Cells were then resuspended in 500 μl of 1% Na Citrate, 0.1% Triton X-100, 50 μg/ml of propidium iodide and incubated at room temperature for 30 min followed by flow cytometer analysis. All flow cytometry analyses were performed on FACScalibur (Becton Dickinson) using Cell Quest analysis software. The x-axis plotted the amount of fluorescence and the y-axis is plotted the number of cells with the indicated fluorescence. The T-47D control cell population profile is seen in FIG. 1A. The sub-diploid DNA content of cells (FIG. 1B) is increased from 3% to 49% with compound treatment. The sub-diploid amount of DNA is indicative of apoptotic cells which have undergone DNA degradation or fragmentation.

Structure (SMILES)	Ki [1] [µM]	Caspase activity Ratio (net RFU of test compound to control) [2]	EC50 [2] [µM]	EC50 [3] [µM]	Caspase activity Ratio (net RFU of test compound to control) [3]	GI50 [4] [µM]	GI50 [5] [µM]	sub-diploid DNA content of cells (M1) [6] [%]
O=C(/C=C/c1cccc([N+](=O)[O-])c1)c1c(-c2ccccc2)c2ccc([N+](=O)[O-])cc2[nH]c1=O [7-Nitro-3-[3-(3-nitrophenyl)-acryloyl]-4-phenyl-1H-quinolin-2-one]	54							
O=C(C=Cc1ccc([N+](=O)[O-])cc1)c1c(-c2ccccc2)c2cc(Br)ccc2[nH]c1=O [Compound A, 6-bromo-3-[3-(4-nitrophenyl)-1-oxo-2-propenyl]-4-phenyl-2(1H)-quinolinone]		8.7	1.9	3.3	12.4	0.5	0.5	49
O=C(C=Cc1cccc([N+](=O)[O-])c1)c1c(-c2ccccc2)c2cc(Br)ccc2[nH]c1=O [Compound B, 6-bromo-3-[3-(3-nitrophenyl)-1-oxo-2-propenyl]-4-phenyl-2(1H)-quinolinone]		10.6	0.849	1.8	12.1			
